Laboratory results: patent US20250230193A1, “CYCLIC COMPOUND HAVING SELECTIVE KRAS INHIBITORY EFFECT ON HRAS AND NRAS” (CHUGAI SEIYAKU KABUSHIKI KAISHA, priority 2022, published 2025)

Assays:
[1] = molecular target: GDP-bound HRAS wild-type protein (Homo sapiens, UniProt P01112); experiment: Binding to HRAS by surface plasmon resonance (SPR), Single Cycle Kinetics; conditions: KD ratio, GDP-bound HRAS wild-type vs GDP-bound KRAS wild-type, SPR
[2] = molecular target: GDP-bound NRAS wild-type protein (Homo sapiens, UniProt P01111); experiment: Binding to NRAS by surface plasmon resonance (SPR), Single Cycle Kinetics; conditions: KD ratio, GDP-bound NRAS wild-type vs GDP-bound KRAS wild-type, SPR
Chain of GDP-bound NRAS wild-type protein (P01111 whole entry): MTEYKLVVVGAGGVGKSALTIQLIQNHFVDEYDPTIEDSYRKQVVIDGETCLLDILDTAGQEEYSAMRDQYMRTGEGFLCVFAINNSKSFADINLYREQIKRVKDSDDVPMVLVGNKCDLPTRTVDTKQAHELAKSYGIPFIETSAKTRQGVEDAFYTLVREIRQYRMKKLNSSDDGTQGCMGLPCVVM

Chain of GDP-bound HRAS wild-type protein (P01112 whole entry): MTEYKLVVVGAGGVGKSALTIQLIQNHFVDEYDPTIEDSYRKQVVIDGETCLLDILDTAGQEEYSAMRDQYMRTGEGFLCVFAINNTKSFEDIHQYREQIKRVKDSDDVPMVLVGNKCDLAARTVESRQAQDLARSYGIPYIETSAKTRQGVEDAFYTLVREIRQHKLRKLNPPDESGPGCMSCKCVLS

## CCCCO[C@H]1CCN2C(=O)[C@H](CCc3cc(F)c(C(F)(F)F)c(F)c3)NC(=O)CN(C)C(=O)[C@H](Cc3ccc(C(F)(F)F)cc3)N3CCCC[C@@H](C3=O)N(C)C(=O)CN(C)C(=O)[C@H]([C@@H](C)CC)NC(=O)[C@H](CC(C)C)N(C)C(=O)C[C@@H](C(=O)N3CCOCC3)N(C)C(=O)[C@H](C3CCCC3)N(C)C(=O)C3(CCC3)NC(=O)[C@H]12 [PP1071]
[1]
  HRAS/KRAS (ratio of KD value with respect to HRAS to KD value with respect to KRAS): B (a compound having 3 or more and less than 10 is denoted as B)
[2]
  NRAS/KRAS (ratio of KD value with respect to NRAS to KD value with respect to KRAS): B (a compound having 3 or more and less than 10 is denoted as B)

## CC[C@H](C)[C@@H]1NC(=O)[C@H](CC(C)C)N(C)C(=O)C[C@@H](C(=O)N2CCOCC2)N(C)C(=O)[C@H](C2CCCC2)N(C)C(=O)C2(CCC2)NC(=O)[C@@H]2[C@@H](OCC3CC3)CCN2C(=O)[C@H](CCc2cc(F)c(C(F)(F)F)c(F)c2)NC(=O)CN(C)C(=O)[C@H](Cc2ccc(C(F)(F)F)cc2)N2CCCC[C@@H](C2=O)N(C)C(=O)CN(C)C1=O [PP1072]
[1]
  HRAS/KRAS (ratio of KD value with respect to HRAS to KD value with respect to KRAS): B (a compound having 3 or more and less than 10 is denoted as B)
[2]
  NRAS/KRAS (ratio of KD value with respect to NRAS to KD value with respect to KRAS): B (a compound having 3 or more and less than 10 is denoted as B)

## CC[C@H](C)[C@@H]1NC(=O)[C@H](CC(C)C)N(C)C(=O)C[C@@H](C(=O)N2CCOCC2)N(C)C(=O)[C@H](C2CCCC2)N(C)C(=O)C2(CCC2)NC(=O)[C@@H]2[C@@H](OCC3CCCC3)CCN2C(=O)[C@H](CCc2cc(F)c(C(F)(F)F)c(F)c2)NC(=O)CN(C)C(=O)[C@H](Cc2ccc(C(F)(F)F)cc2)N2CCCC[C@@H](C2=O)N(C)C(=O)CN(C)C1=O [PP1073]
[1]
  HRAS/KRAS (ratio of KD value with respect to HRAS to KD value with respect to KRAS): B (a compound having 3 or more and less than 10 is denoted as B)
[2]
  NRAS/KRAS (ratio of KD value with respect to NRAS to KD value with respect to KRAS): B (a compound having 3 or more and less than 10 is denoted as B)

## CC[C@H](C)[C@@H]1NC(=O)[C@H](CC(C)C)N(C)C(=O)C[C@@H](C(=O)N2CCOCC2)N(C)C(=O)[C@H](C2CCCC2)N(C)C(=O)C2(CCC2)NC(=O)[C@@H]2[C@@H](OC)CCN2C(=O)[C@H](CCc2cc(F)c(C(F)(F)F)c(F)c2)NC(=O)CN(C)C(=O)[C@H](Cc2ccc(C(F)(F)F)cc2)N2CCCC[C@@H](C2=O)N(C)C(=O)CN(C)C1=O [PP1075]
[1]
  HRAS/KRAS (ratio of KD value with respect to HRAS to KD value with respect to KRAS): B (a compound having 3 or more and less than 10 is denoted as B)
[2]
  NRAS/KRAS (ratio of KD value with respect to NRAS to KD value with respect to KRAS): B (a compound having 3 or more and less than 10 is denoted as B)

## CCO[C@H]1CCN2C(=O)[C@H](CCc3cc(F)c(C(F)(F)F)c(F)c3)NC(=O)CN(C)C(=O)[C@H](Cc3ccc(C(F)(F)F)cc3)N3CCCC[C@@H](C3=O)N(C)C(=O)CN(C)C(=O)[C@H]([C@@H](C)CC)NC(=O)[C@H](CC(C)C)N(C)C(=O)C[C@@H](C(=O)N3CCOCC3)N(C)C(=O)[C@H](C3CCCC3)N(C)C(=O)C3(CCC3)NC(=O)[C@H]12 [PP1076]
[1]
  HRAS/KRAS (ratio of KD value with respect to HRAS to KD value with respect to KRAS): B (a compound having 3 or more and less than 10 is denoted as B)
[2]
  NRAS/KRAS (ratio of KD value with respect to NRAS to KD value with respect to KRAS): B (a compound having 3 or more and less than 10 is denoted as B)

## CCCO[C@H]1CCN2C(=O)[C@H](CCc3cc(F)c(C(F)(F)F)c(F)c3)NC(=O)CN(C)C(=O)[C@H](Cc3ccc(C(F)(F)F)cc3)N3CCCC[C@@H](C3=O)N(C)C(=O)CN(C)C(=O)[C@H]([C@@H](C)CC)NC(=O)[C@H](CC(C)C)N(C)C(=O)C[C@@H](C(=O)N3CCOCC3)N(C)C(=O)[C@H](C3CCCC3)N(C)C(=O)C3(CCC3)NC(=O)[C@H]12 [PP1077]
[1]
  HRAS/KRAS (ratio of KD value with respect to HRAS to KD value with respect to KRAS): B (a compound having 3 or more and less than 10 is denoted as B)
[2]
  NRAS/KRAS (ratio of KD value with respect to NRAS to KD value with respect to KRAS): B (a compound having 3 or more and less than 10 is denoted as B)
